Measurements as given in ChEMBL document CHEMBL1201862, “PubChem BioAssay data set” (2004).
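Cultured in 96-well plates, cells were exposed to test compound for 48 hours across five concentrations. GI50 = concentration required for 50% inhibition of growth.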 Activity calls are given as the source filed them. Cut-off read from the data, not from the text of the source: active = GI50 up to about 1.1 µM and inactive = higher.

Assays:
Experiment in all cases: growth of human tumour cells (NCI), 48 h
KM12 = system: KM12
HL-60 = system: HL-60
COLO 205 = system: COLO 205
MCF7 = system: MCF7
M14 = system: M14
SF-268 = system: SF-268
CAKI-1 = system: CAKI-1
NCI/ADR-RES = system: NCI/ADR-RES
HCT-15 = system: HCT-15
RXF 393 = system: RXF 393
IGROV-1 = system: IGROV-1
MDA-MB-435 = system: MDA-MB-435
CCRF-CEM = system: CCRF-CEM
OVCAR-5 = system: OVCAR-5
SK-MEL-5 = system: SK-MEL-5
TK-10 = system: TK-10
SK-MEL-2 = system: SK-MEL-2
SNB-19 = system: SNB-19
DU-145 = system: DU-145
K562 = system: K562

Brc1ccccc1/C=C\C1(c2ccccc2)OCCO1
GI50 (KM12): 2.34 µM (inactive) | GI50 (HL-60): 24.7 µM (inactive) | GI50 (COLO 205): 19.6 µM (inactive) | GI50 (MCF7): 4 µM (inactive) | GI50 (M14): 11.4 µM (inactive) | GI50 (SF-268): 4.98 µM (inactive) | GI50 (CAKI-1): 6.59 µM (inactive) | GI50 (NCI/ADR-RES): 10.9 µM (inactive) | GI50 (HCT-15): 6.38 µM | GI50 (RXF 393): 13.9 µM (inactive) | GI50 (IGROV-1): 13.6 µM (inactive) | GI50 (MDA-MB-435): 11.7 µM (inactive) | GI50 (CCRF-CEM): 3.03 µM (inactive) | GI50 (OVCAR-5): 15.3 µM (inactive) | GI50 (SK-MEL-5): 15.2 µM (inactive) | GI50 (TK-10): 16.6 µM (inactive) | GI50 (SK-MEL-2): 23 µM (inactive) | GI50 (SNB-19): 15 µM (inactive) | GI50 (DU-145): 13.7 µM (inactive) | GI50 (K562): 1.01 µM (active)

CC1(C)N/C(=C\C=O)C(C)(C)N1O
GI50 (KM12): > 100 µM (inactive) | GI50 (HL-60): > 100 µM (inactive) | GI50 (COLO 205): > 100 µM (inactive) | GI50 (MCF7): > 100 µM (inactive) | GI50 (M14): > 100 µM (inactive) | GI50 (SF-268): > 100 µM (inactive) | GI50 (CAKI-1): > 100 µM (inactive) | GI50 (NCI/ADR-RES): > 100 µM (inactive) | GI50 (HCT-15): > 100 µM | GI50 (RXF 393): > 100 µM (inactive) | GI50 (IGROV-1): > 100 µM (inactive) | GI50 (MDA-MB-435): > 100 µM (inactive) | GI50 (CCRF-CEM): > 100 µM (inactive) | GI50 (OVCAR-5): > 100 µM (inactive) | GI50 (SK-MEL-5): > 100 µM (inactive) | GI50 (TK-10): > 100 µM (inactive) | GI50 (SK-MEL-2): > 100 µM (inactive) | GI50 (SNB-19): > 100 µM (inactive) | GI50 (DU-145): > 100 µM (inactive) | GI50 (K562): > 100 µM (inactive)

CCN(CC)CCN1C(=O)C(=O)N(c2cccc3ccccc23)C1=O
GI50 (KM12): > 10 µM (inactive) | GI50 (HL-60): > 10 µM (inactive) | GI50 (COLO 205): > 10 µM (inactive) | GI50 (MCF7): > 10 µM (inactive) | GI50 (M14): > 10 µM (inactive) | GI50 (SF-268): > 10 µM (inactive) | GI50 (CAKI-1): > 10 µM (inactive) | GI50 (NCI/ADR-RES): > 10 µM (inactive) | GI50 (HCT-15): > 10 µM | GI50 (RXF 393): > 10 µM (inactive) | GI50 (IGROV-1): > 10 µM (inactive) | GI50 (MDA-MB-435): > 10 µM (inactive) | GI50 (CCRF-CEM): > 10 µM (inactive) | GI50 (OVCAR-5): > 10 µM (inactive) | GI50 (SK-MEL-5): > 10 µM (inactive) | GI50 (TK-10): > 10 µM (inactive) | GI50 (SK-MEL-2): > 10 µM (inactive) | GI50 (SNB-19): > 10 µM (inactive) | GI50 (DU-145): > 10 µM (inactive) | GI50 (K562): > 10 µM (inactive)
